According to PMC3935609 (Biochemistry, 2013):

Columns and labels:
[1] = molecular target: T1, GLIC (Gloeobacter violaceus ligand-gated ion channel) (Gloeobacter violaceus, UniProt Q7NDN8); experiment: [3H]AziPm photoaffinity labeling of purified GLIC at pH […] with Edman sequencing; assay type: cell-based
T1 sequence (Q7NDN8 44-359): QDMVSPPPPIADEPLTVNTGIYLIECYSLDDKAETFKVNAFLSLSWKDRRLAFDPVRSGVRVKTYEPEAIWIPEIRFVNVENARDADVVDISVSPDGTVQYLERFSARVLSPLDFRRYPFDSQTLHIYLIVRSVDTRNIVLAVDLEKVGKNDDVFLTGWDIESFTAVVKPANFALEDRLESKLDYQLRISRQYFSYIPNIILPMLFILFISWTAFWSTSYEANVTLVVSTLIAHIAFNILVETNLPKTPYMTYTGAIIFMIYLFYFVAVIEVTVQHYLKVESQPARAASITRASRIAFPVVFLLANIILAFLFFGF

[2] = molecular target: T1, GLIC (Gloeobacter violaceus ligand-gated ion channel); experiment: competition; assay type: cell-based

Row | SMILES | IC50 [1] [µM] | IC50 [2] [µM]
1 | CC(C)c1ccc(C2(C(F)(F)F)N=N2)cc1O [AziPm, 2-isopropyl-5-[3-(trifluoromethyl)-3H-diazirin-3-yl]phenol] | 51.4 ± 5.3 | –
2 | CC(C)c1cccc(C(C)C)c1O [PPF, Propofol] | – | 21.4 ± 1.2
